# According to patent publication US20200024278A1, “COMPOSITION COMPRISING ANTIBIOTIC COMPOUND AND AN HETEROCYCLIC COMPOUND AND THEIR USE IN PREVENTING OR TREATING BACTERIAL INFECTIONS” (MUTABILIS, priority 2016, published 2020):
# Where two headings read alike, the source gives them in different places.
# How the values were obtained:
# Assay in all cases: MIC, broth microdilution (CLSI), substance alone or ATB combined with compound at 4 or 8 μg/mL
# PAE 105250 = assay type: cell-based, P. aeruginosa; settings: PAE 105250
# Procedure, shortened: (§1)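 CLSI M7-A7 broth microdilution. ca-MHB, 5·10^5 CFU/mL log-phase cells, 16-20 h, 35° C, ambient air. Fosfomycin wells + 25 μg/ml glucose-6-phosphate. Visual MIC read.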
# PAE UFR48 = assay type: cell-based, P. aeruginosa; settings: PAE UFR48
# Procedure, shortened: as §1
# PAE UFR90 = assay type: cell-based, P. aeruginosa; settings: PAE UFR90
# Procedure, shortened: as §1
# KPN 6299 = assay type: cell-based, K. pneumoniae; settings: for MIC: Klebsiella pneumoniae
# Procedure, shortened: as §1
# KPN UFR42 = assay type: cell-based, K. pneumoniae; settings: for MIC: Klebsiella pneumoniae
# Procedure, shortened: as §1
# KPN BAA-1898 = assay type: cell-based, K. pneumoniae; settings: KPN BAA-1898; for MIC: Klebsiella pneumoniae, BAA1898
# Procedure, shortened: as §1
# [1] = Pseudomonas aeruginosa, antibiotic alone, read-out: MIC ATB alone
# [2] = antibiotic alone, read-out: MIC ATB alone
structure (smiles),measurement,setting,value
"CO/N=C(\C(=O)N[C@@H]1C(=O)N2C(C(=O)O)=C(COC(N)=O)CS[C@H]12)c1ccco1 [FUR, Cefuroxime, reference compound]",MIC ATB combined with Example 12 @8 μg/ml,PAE 105250; with Example 12 at 8 μg/ml,>32 µg/mL
same,MIC ATB combined with Example 13 @8 μg/ml,PAE 105250; with Example 13 at 8 μg/ml,>32 µg/mL
same,MIC ATB combined with Example 14 @8 μg/ml,PAE 105250; with Example 14 at 8 μg/ml,>32 µg/mL
same,MIC ATB combined with Example 15 @4 μgml,PAE 105250; with Example 15 at 4 μg/ml,>32 µg/mL
same,MIC ATB combined with Example 16 @4 μg/ml,PAE 105250; with Example 16 at 4 μg/ml,>32 µg/mL
same,MIC,PAE 105250; [1],> 512 µg/mL
same,MIC ATB combined with Example 1 @8 μg/ml,PAE UFR48; with Example 1 @8 μg/ml,<0.031 µg/mL
same,MIC ATB combined with Example 1 @8 μg/ml,PAE UFR48; with Example 1 at 8 μg/ml,<0.031 µg/mL
same,MIC ATB combined with Example 7 @8 μgml,PAE UFR48; with Example 7 at 8 μg/ml,>32 µg/mL
same,MIC ATB combined with Example 9 @4 μg/ml,PAE UFR48; with Example 9 @4 μg/ml,>32 µg/mL
same,MIC ATB combined with Example 9 @4 μg/ml,PAE UFR48; with Example 9 at 4 μg/ml,>32 µg/mL
same,MIC ATB combined with Example 11 @8 μg/ml,PAE UFR48; with Example 11 at 8 μg/ml,>32 µg/mL
same,MIC ATB combined with Example 12 @8 μg/ml,PAE UFR48; with Example 12 at 8 μg/ml,>32 µg/mL
same,MIC ATB combined with Example 13 @8 μg/ml,PAE UFR48; with Example 13 at 8 μg/ml,>32 µg/mL
same,MIC ATB combined with Example 14 @8 μg/ml,PAE UFR48; with Example 14 at 8 μg/ml,>32 µg/mL
same,MIC ATB combined with Example 15 @4 μgml,PAE UFR48; with Example 15 at 4 μg/ml,>32 µg/mL
same,MIC ATB combined with Example 16 @4 μg/ml,PAE UFR48; with Example 16 at 4 μg/ml,>32 µg/mL
same,MIC,PAE UFR48; [1],> 32 µg/mL
same,MIC ATB combined with Example 1 @8 μg/ml,PAE UFR90; with Example 1 @8 μg/ml,<0.031 µg/mL
same,MIC ATB combined with Example 1 @8 μg/ml,PAE UFR90; with Example 1 at 8 μg/ml,<0.031 µg/mL
same,MIC ATB combined with Example 7 @8 μgml,PAE UFR90; with Example 7 at 8 μg/ml,>32 µg/mL
same,MIC ATB combined with Example 9 @4 μg/ml,PAE UFR90; with Example 9 @4 μg/ml,>32 µg/mL
same,MIC ATB combined with Example 9 @4 μg/ml,PAE UFR90; with Example 9 at 4 μg/ml,>32 µg/mL
same,MIC ATB combined with Example 11 @8 μg/ml,PAE UFR90; with Example 11 at 8 μg/ml,>32 µg/mL
same,MIC ATB combined with Example 12 @8 μg/ml,PAE UFR90; with Example 12 at 8 μg/ml,>32 µg/mL
same,MIC ATB combined with Example 13 @8 μg/ml,PAE UFR90; with Example 13 at 8 μg/ml,>32 µg/mL
same,MIC ATB combined with Example 14 @8 μg/ml,PAE UFR90; with Example 14 at 8 μg/ml,>32 µg/mL
same,MIC ATB combined with Example 15 @4 μgml,PAE UFR90; with Example 15 at 4 μg/ml,>32 µg/mL
same,MIC ATB combined with Example 16 @4 μg/ml,PAE UFR90; with Example 16 at 4 μg/ml,>32 µg/mL
same,MIC,PAE UFR90; [1],> 32 µg/mL
same,MIC,KPN 6299; [2],> 512 µg/mL
same,MIC,"KPN 6299; substance alone, read-out: MIC",> 512 µg/mL
same,MIC ATB combined with Example 1 @8 μg/ml,KPN 6299; with Example 1 @8 μg/ml,8 µg/mL
same,MIC ATB combined with Example 1 @8 μg/ml,KPN 6299; with Example 1 at 8 μg/ml,8 µg/mL
same,MIC ATB combined with Example 7 @8 μgml,KPN 6299; with Example 7 at 8 μg/ml,2 µg/mL
same,MIC ATB combined with Example 9 @4 μg/ml,KPN 6299; with Example 9 @4 μg/ml,<0.031 µg/mL
same,MIC ATB combined with Example 9 @4 μg/ml,KPN 6299; with Example 9 at 4 μg/ml,<0.031 µg/mL
same,MIC ATB combined with Example 11 @8 μg/ml,KPN 6299; with Example 11 at 8 μg/ml,<0.031 µg/mL
same,MIC ATB combined with Example 12 @8 μg/ml,KPN 6299; with Example 12 at 8 μg/ml,<0.031 µg/mL
same,MIC ATB combined with Example 13 @8 μg/ml,KPN 6299; with Example 13 at 8 μg/ml,2 µg/mL
same,MIC ATB combined with Example 14 @8 μg/ml,KPN 6299; with Example 14 at 8 μg/ml,<0.031 µg/mL
same,MIC ATB combined with Example 15 @4 μgml,KPN 6299; with Example 15 at 4 μg/ml,<0.031 µg/mL
same,MIC ATB combined with Example 16 @4 μg/ml,KPN 6299; with Example 16 at 4 μg/ml,<0.031 µg/mL
same,MIC ATB combined with Example 1 @8 μg/ml,"KPN UFR42; KPN UFR42, with Example 1 @8 μg/ml",>32 µg/mL
same,MIC ATB combined with Example 1 @8 μg/ml,"KPN UFR42; KPN UFR42, with Example 1 at 8 μg/ml",>32 µg/mL
same,MIC ATB combined with Example 7 @8 μgml,"KPN UFR42; KPN UFR42, with Example 7 at 8 μg/ml",>32 µg/mL
same,MIC ATB combined with Example 9 @4 μg/ml,"KPN UFR42; KPN UFR42, with Example 9 @4 μg/ml",>32 µg/mL
same,MIC ATB combined with Example 9 @4 μg/ml,"KPN UFR42; KPN UFR42, with Example 9 at 4 μg/ml",>32 µg/mL
same,MIC ATB combined with Example 11 @8 μg/ml,"KPN UFR42; KPN UFR42, with Example 11 at 8 μg/ml",<0.031 µg/mL
same,MIC ATB combined with Example 12 @8 μg/ml,"KPN UFR42; KPN UFR42, with Example 12 at 8 μg/ml",<0.031 µg/mL
same,MIC ATB combined with Example 13 @8 μg/ml,"KPN UFR42; KPN UFR42, with Example 13 at 8 μg/ml",>32 µg/mL
same,MIC ATB combined with Example 14 @8 μg/ml,"KPN UFR42; KPN UFR42, with Example 14 at 8 μg/ml",<0.031 µg/mL
same,MIC ATB combined with Example 15 @4 μgml,"KPN UFR42; KPN UFR42, with Example 15 at 4 μg/ml",<0.031 µg/mL
same,MIC ATB combined with Example 16 @4 μg/ml,"KPN UFR42; KPN UFR42, with Example 16 at 4 μg/ml",<0.031 µg/mL
same,MIC,KPN UFR42,> 256 µg/mL
same,MIC,"KPN UFR42; KPN UFR42, antibiotic alone, read-out: MIC ATB alone",> 32 µg/mL
same,MIC ATB combined with Example 1 @8 μg/ml,KPN BAA-1898; with Example 1 @8 μg/ml,2 µg/mL
same,MIC ATB combined with Example 1 @8 μg/ml,KPN BAA-1898; with Example 1 at 8 μg/ml,2 µg/mL
same,MIC ATB combined with Example 7 @8 μgml,KPN BAA-1898; with Example 7 at 8 μg/ml,8 µg/mL
same,MIC ATB combined with Example 9 @4 μg/ml,KPN BAA-1898; with Example 9 @4 μg/ml,<0.031 µg/mL
same,MIC ATB combined with Example 9 @4 μg/ml,KPN BAA-1898; with Example 9 at 4 μg/ml,<0.031 µg/mL
same,MIC ATB combined with Example 11 @8 μg/ml,KPN BAA-1898; with Example 11 at 8 μg/ml,<0.031 µg/mL
same,MIC ATB combined with Example 12 @8 μg/ml,KPN BAA-1898; with Example 12 at 8 μg/ml,<0.031 µg/mL
same,MIC ATB combined with Example 13 @8 μg/ml,KPN BAA-1898; with Example 13 at 8 μg/ml,8 µg/mL
same,MIC ATB combined with Example 14 @8 μg/ml,KPN BAA-1898; with Example 14 at 8 μg/ml,<0.031 µg/mL
same,MIC ATB combined with Example 15 @4 μgml,KPN BAA-1898; with Example 15 at 4 μg/ml,<0.031 µg/mL
same,MIC ATB combined with Example 16 @4 μg/ml,KPN BAA-1898; with Example 16 at 4 μg/ml,<0.031 µg/mL
same,MIC,KPN BAA-1898; [2],> 512 µg/mL
same,MIC,"KPN BAA-1898; substance alone, read-out: MIC",> 512 µg/mL
